Laboratory results published in patent publication US9834558B2, “Substituted bridged urea analogs as sirtuin modulators” (GLAXOSMITHKLINE LLC, priority 2013, dated 2017).
Where a name gives a salt, the structure may show the parent alone. Read-outs that look alike come from different tables or passages of the source.

Biological target: T1, SIRT1 (Homo sapiens, UniProt Q96EB6)
T1 sequence (Q96EB6 1-747): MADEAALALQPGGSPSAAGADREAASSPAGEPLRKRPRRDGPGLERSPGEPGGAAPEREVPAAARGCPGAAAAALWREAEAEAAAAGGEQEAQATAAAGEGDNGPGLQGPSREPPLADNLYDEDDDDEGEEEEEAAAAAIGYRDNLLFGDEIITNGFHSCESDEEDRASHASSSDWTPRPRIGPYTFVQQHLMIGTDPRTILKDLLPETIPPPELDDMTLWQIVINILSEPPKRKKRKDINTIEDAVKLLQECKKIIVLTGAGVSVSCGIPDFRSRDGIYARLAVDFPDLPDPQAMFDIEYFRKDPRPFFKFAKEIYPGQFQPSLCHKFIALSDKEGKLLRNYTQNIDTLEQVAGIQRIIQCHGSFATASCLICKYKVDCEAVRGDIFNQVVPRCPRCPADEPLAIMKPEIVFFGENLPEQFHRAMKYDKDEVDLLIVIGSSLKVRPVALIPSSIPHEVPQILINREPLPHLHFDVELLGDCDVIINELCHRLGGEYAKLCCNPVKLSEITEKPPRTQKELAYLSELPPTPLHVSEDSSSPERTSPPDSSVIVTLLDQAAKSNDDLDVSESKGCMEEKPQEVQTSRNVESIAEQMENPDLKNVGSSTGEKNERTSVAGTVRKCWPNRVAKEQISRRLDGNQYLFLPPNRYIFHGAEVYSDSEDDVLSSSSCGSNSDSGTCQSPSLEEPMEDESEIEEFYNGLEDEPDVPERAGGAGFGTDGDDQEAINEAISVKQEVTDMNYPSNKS
Experiment: Trp mass spectrometry assay of SIRT1 activation
Assay type: biochemical
Conditions: for TRP Activity (EC1.5): EC1.5 = concentration that results in 150% activation of SIRT1; for Emax: read-out: TRP MAX RESP (percent maximum fold activation)
How it was run: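 N-terminal His-tagged human SIRT1 (10 nM, E. coli BL21(DE3)) with 0.5 μM Ac-RHKK(Ac)W-NH2 peptide and 120 μM βNAD+, 25 min at 25 °C in HEPES pH 7.5, formic acid stop. OAADPR or deacetylated peptide quantified by mass spectrometry; EC1.5 (50% activity increase over control) and Percent Maximum Activation reported.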

[1] = Trp peptide assay, maximum activity relative to control (100%)
[2] = Trp mass spectrometry assay, EC1.5 = concentration of test compound that results in 150% activation of SIRT1
[3] = concentration giving 150% activation of SIRT1, Trp peptide substrate
[4] = Trp mass spectrometry assay, concentration of test compound giving 150% activation of SIRT1

With `CC(C)c1cc(-c2ccc3c(n2)N(C(=O)Nc2cnccn2)[C@H]2CCN3C2)ccn1` [(9S)-5-[2-(propan-2-yl)pyridin-4-yl]-N-(pyrazin-2-yl)-1,6,8-triazatricyclo[7.2.1.0 {2,7}]dodeca-2,4,6-triene-8-carboxamide] the “TRP Activity (EC1.5)” value (Trp peptide assay) was “A (A (EC1.5<1 μM))” and the Emax [1] was > 150%.
`O=C(Nc1cnccn1)N1c2nc(-c3cccc(C(F)(F)F)c3)ccc2N2CCC1CC2` [Example 472] was tested, and the “Tryp AVG EC1.5 (μM)” value [2] was “A (A (EC1.5<1 μM))”.
`C[C@@H]1CN(c2ccc3c(n2)N(C(=O)Nc2cnccn2)[C@H]2CCN3C2)C[C@H](C)O1` [(9S)-5-[(2R,6S)-2,6-dimethylmorpholin-4-yl]-N-(pyrazin-2-yl)-1,6,8-triazatricyclo[7.2.1.0 {2,7}]dodeca-2(7),3,5-triene-8-carboxamide] was tested, and the “TRP Activity (EC1.5)” value (Trp peptide assay) was “B (B (EC1.5 1-25 μM))” and the Emax [1] was > 150%.
With `O=C(Nc1ccccn1)N1c2nc(N3CCC(C(F)(F)F)CC3)ccc2N2CC[C@H]1C2` [(9S)-N-(pyridin-2-yl)-5-[4-(trifluoromethyl)piperidin-1-yl]-1,6,8-triazatricyclo[7.2.1.0 {2,7}]dodeca-2,4,6-triene-8-carboxamide] the “TRP Activity (EC1.5)” value (Trp peptide assay) was “A (A (EC1.5<1 μM))” and the Emax [1] was > 150%.
With `Cc1cc(-c2ccc3c(n2)N(C(=O)Nc2cncc(-c4cnco4)c2)[C@H]2CCN3C2)ccn1` [Example 748] the “Tryp AVG EC1.5 (μM)” value [3] was “A (A (EC1.5<1 μM))”.
With `O=C(Nc1cncc(F)c1)N1c2nc(-c3cccc(Cl)c3)ccc2N2CCC1CC2` [Example 521] the “Tryp AVG EC1.5 (μM)” value [2] was “B (B (EC1.5 1-25 μM))”.
`CC(C)C(=O)c1cccc(NC(=O)N2c3nc(-c4cccc(C(F)(F)F)c4)ccc3N3CC[C@H]2C3)c1` [Example 740] was tested, and the “Tryp AVG EC1.5 (μM)” value [3] was “A (A (EC1.5<1 μM))”.
In the case of `Cc1cc(-c2ccc3c(n2)N(C(=O)Nc2ccc4c(cnn4C)c2)[C@H]2CCN3C2)ccn1` [Example 502], the “Tryp AVG EC1.5 (μM)” value [2] is reported as “A (A (EC1.5<1 μM))”.
In the case of `O=C(NCCCc1ccccn1)N1c2nc(-c3cccc(C(F)(F)F)c3)ccc2N2CC[C@H]1C2` [Example 673], the “Tryp AVG EC1.5 (μM)” value [3] is reported as “B (B (EC1.5 1-25 μM))”.
With `O=C(Nc1cccc(OC[C@H](O)CO)n1)N1c2nc(-c3cccc(C(F)(F)F)c3)ccc2N2CC[C@H]1C2` [Example 819] the “Tryp AVG EC1.5 (μM)” value [3] was “A (A (EC1.5<1 μM))”.
In the case of `Cc1cc(-c2ccc3c(n2)N(C(=O)Nc2cncnc2)[C@H]2CCN3C2)ccn1` [(9S)-5-(2-methylpyridin-4-yl)-N-(pyrimidin-5-yl)-1,6,8-triazatricyclo[7.2.1.0 {2,7}]dodeca-2(7),3,5-triene-8-carboxamide], the “TRP Activity (EC1.5)” value (Trp peptide assay) is reported as “C (C (EC1.5>25 μM))” and the Emax [1] is reported as > 150%.
With `Cc1ccc(-c2ccc3c(n2)N(C(=O)Nc2cccnn2)[C@H]2CCCN3C2)cn1` [Example 467] the “Tryp AVG EC1.5 (μM)” value [2] was “B (B (EC1.5 1-25 μM))”.
With `O=C(Nc1nnc(-c2ccccc2)s1)N1c2nc(-c3cccc(C(F)(F)F)c3)ccc2N2CC[C@H]1C2` [Example 648] the “Tryp AVG EC1.5 (μM)” value [3] was “A (A (EC1.5<1 μM))”.
With `CC(=O)c1ccc(NC(=O)N2c3nc(-c4cccc(C(F)(F)F)c4)ccc3N3CC[C@H]2C3)cc1` [Example 668] the “Tryp AVG EC1.5 (μM)” value [3] was “A (A (EC1.5<1 μM))”.
`Cc1ccc(-c2ccc3c(n2)N(C(=O)Nc2cccnc2)[C@H]2CCN3C2)c(C)n1` [(9S)-5-(2,6-dimethylpyridin-3-yl)-N-(pyridin-3-yl)-1,6,8-triazatricyclo[7.2.1.0 {2,7}]dodeca-2(7),3,5-triene-8-carboxamide] was tested, and the “TRP Activity (EC1.5)” value (Trp peptide assay) was “B (B (EC1.5 1-25 μM))” and the Emax [1] was > 150%.
In the case of `COc1cc(NC(=O)N2c3nc(-c4cccc(Cl)c4)ccc3N3C[C@@H](O)[C@H]2C3)ncn1` [Example 679], the “Tryp AVG EC1.5 (μM)” value [3] is reported as “B (B (EC1.5 1-25 μM))”.
With `O=C(Nc1ccc2[nH]ncc2c1)N1c2nc(-c3cccc(C(F)(F)F)c3)ccc2N2CC[C@H]1C2` [Example 666] the “Tryp AVG EC1.5 (μM)” value [3] was “A (A (EC1.5<1 μM))”.
In the case of `CC(C)(C)OC(=O)NCCCc1cc(NC(=O)N2c3nc(-c4cccc(C(F)(F)F)c4)ccc3N3CC[C@H]2C3)cc(-c2cnco2)c1` [Example 759], the “Tryp AVG EC1.5 (μM)” value [3] is reported as “B (B (EC1.5 1-25 μM))”.
In the case of `O=C(Nc1cnccn1)N1c2nc(-c3cc(Cl)cc(Cl)c3)ccc2N2CC[C@H]1C2` [Example 364], the “Tryp AVG EC1.5 (μM)” value [4] is reported as “B (B (EC1.5 1-25 μM))”.
`Cc1cc(-c2ccc3c(n2)N(C(=O)Nc2ncnc4[nH]cnc24)[C@H]2CCN3C2)ccn1` [(9S)-5-(2-methylpyridin-4-yl)-N-(9H-purin-6-yl)-1,6,8-triazatricyclo[7.2.1.0^{2,7}]dodeca-2,4,6-triene-8-carboxamide] was tested, and the “TRP Activity (EC1.5)” value (Trp peptide assay) was “B (B (EC1.5 1-25 μM))” and the Emax was > 150%.
For `O=C(Nc1cccc(CN2CCOCC2)c1)N1c2nc(-c3cccc(C(F)(F)F)c3)ccc2N2CC[C@H]1C2` [Example 629], the “Tryp AVG EC1.5 (μM)” value [3] was “A (A (EC1.5<1 μM))”.
`N#Cc1cccc(-c2ccc3c(n2)N(C(=O)Nc2cccnn2)[C@H]2CCCN3C2)c1` [Example 381] was tested, and the “Tryp AVG EC1.5 (μM)” value [4] was “B (B (EC1.5 1-25 μM))”.
With `Cc1cc(-c2ccc3c(n2)N(C(=O)Nc2cncc(C)n2)[C@H]2CCN3C2)ccn1` [Example 503] the “Tryp AVG EC1.5 (μM)” value [2] was “A (A (EC1.5<1 μM))”.
With `CC(C)(C)OC(=O)NCC#Cc1cc(NC(=O)N2c3nc(-c4cccc(C(F)(F)F)c4)ccc3N3CC[C@H]2C3)cc(-c2cnco2)c1` [Example 749] the “Tryp AVG EC1.5 (μM)” value [3] was “A (A (EC1.5<1 μM))”.
`O=C(Nc1ccc(Oc2ccccc2)cc1)N1c2nc(-c3cccc(C(F)(F)F)c3)ccc2N2CC[C@H]1C2` [Example 641] was tested, and the “Tryp AVG EC1.5 (μM)” value [3] was “C (C (EC1.5>25 μM))”.
In the case of `Cc1ncc(-c2ccc3c(n2)N(C(=O)Nc2cnccn2)[C@H]2CCN3C2)s1` [(9S)-5-(2-methyl-1,3-thiazol-5-yl)-N-(pyrazin-2-yl)-1,6,8-triazatricyclo[7.2.1.0 {2,7}]dodeca-2(7),3,5-triene-8-carboxamide], the “TRP Activity (EC1.5)” value (Trp peptide assay) is reported as “B (B (EC1.5 1-25 μM))” and the Emax [1] is reported as > 150%.
In the case of `Cc1cc(-c2ccc3c(n2)N(C(=O)Nc2ccc4[nH]ncc4c2)[C@H]2CCN3C2)ccn1` [(9S)-N-(1H-indazol-5-yl)-5-(2-methylpyridin-4-yl)-1,6,8-triazatricyclo[7.2.1.0 {2,7}]dodeca-2(7),3,5-triene-8-carboxamide], the “TRP Activity (EC1.5)” value (Trp peptide assay) is reported as “A (A (EC1.5<1 μM))” and the Emax [1] is reported as > 150%.
With `O=C(Nc1cccc(Br)n1)N1c2nc(-c3cccc(C(F)(F)F)c3)ccc2N2CC[C@H]1C2` [Example 652] the “Tryp AVG EC1.5 (μM)” value [3] was “A (A (EC1.5<1 μM))”.
`Cc1ccc(-c2ccc3c(n2)N(C(=O)NC(C)C)[C@H]2CCN3C2)cn1` [(9S)-5-(6-methylpyridin-3-yl)-N-(propan-2-yl)-1,6,8-triazatricyclo[7.2.1.0^{2,7}]dodeca-2,4,6-triene-8-carboxamide] was tested, and the “TRP Activity (EC1.5)” value (Trp peptide assay) was “B (B (EC1.5 1-25 μM))” and the Emax [1] was > 150%.
With `Cc1cc(-c2ccc3c(n2)N(C(=O)N2CCO[C@H](C)C2)[C@H]2CCN3C2)ccn1` [(9S)-8-{[(2R)-2-methylmorpholin-4-yl]carbonyl}-5-(2-methylpyridin-4-yl)-1,6,8-triazatricyclo[7.2.1.0 {2,7}]dodeca-2(7),3,5-triene hydrochloride] the “TRP Activity (EC1.5)” value (Trp peptide assay) was “C (C (EC1.5>25 μM))” and the Emax [1] was < 150%.
With `N#Cc1cccc(-c2ccc3c(n2)N(C(=O)Nc2cccnc2)[C@H]2CCCN3C2)c1` [Example 350] the “Tryp AVG EC1.5 (μM)” value [4] was “A (A (EC1.5<1 μM))”.
With `Cc1cc(-c2ccc3c(n2)N(C(=O)Nc2cnc(C(F)(F)F)cn2)[C@H]2CCN3C2)ccn1` [(9S)-5-(2-methylpyridin-4-yl)-N-[5-(trifluoromethyl)pyrazin-2-yl]-1,6,8-triazatricyclo[7.2.1.0 {2,7}]dodeca-2(7),3,5-triene-8-carboxamide] the “TRP Activity (EC1.5)” value (Trp peptide assay) was “C (C (EC1.5>25 μM))” and the Emax [1] was < 150%.
`Cc1cc(-c2ccc3c(n2)N(C(=O)Nc2cnccn2)[C@H]2CCN3C2)[nH]n1` [(9S)-5-(3-methyl-1H-pyrazol-5-yl)-N-(pyrazin-2-yl)-1,6,8-triazatricyclo[7.2.1.0^{2,7}]dodeca-2(7),3,5-triene-8-carboxamide] was tested, and the “TRP Activity (EC1.5)” value (Trp peptide assay) was “B (B (EC1.5 1-25 μM))” and the Emax [1] was > 150%.
With `Cc1cncc(-c2ccc3c(n2)N(C(=O)Nc2nc(C)c(C)s2)[C@H]2CCCN3C2)c1` [Example 507] the “Tryp AVG EC1.5 (μM)” value [2] was “A (A (EC1.5<1 μM))”.
With `O=C(Nc1ccccn1)N1c2nc(N3CCC[C@H](C(F)(F)F)C3)ccc2N2CCC[C@H]1C2` [drawing 1172, (9S)-N-(pyridin-2-yl)-5-[(3S)-3-(trifluoromethyl)piperidin-1-yl]-1,6,8-triazatricyclo[7.3.1.0 {2,7}]trideca-2(7),3,5-triene-8-carboxamide] the “TRP Activity (EC1.5)” value (Trp peptide assay) was “B (B (EC1.5 1-25 μM))” and the Emax [1] was > 150%.
With `O=C(Nc1ccc(F)cn1)N1c2nc(-c3ccnc(N4CC[C@H](F)C4)c3)ccc2N2CC[C@H]1C2` [Example 463] the “Tryp AVG EC1.5 (μM)” value [2] was “A (A (EC1.5<1 μM))”.
